In ChEMBL document CHEMBL1134156, “Design, synthesis and preliminary evaluation of novel 3'-substituted carboxycyclopropylglycines as antagonists at group 2 metabotropic glutamate receptors” (Bioorg Med Chem Lett, 2001):
“And” between values parts separate entries of the source, which are not always exact repeats. Identical values can stand only once.

Tests used:
[1] = Effect of compound on GluR mediated phosphoinositol metabolisim at conc of 50 uM of mGluR5a; assay type: functional
[2] = biological target: Metabotropic glutamate receptor 2 (Homo sapiens, UniProt Q14416); assay: Antagonistic activity against stimulation of GTP (gamma) 35 S binding by glutamate in membranes from CHO cells expressing human Metabotropic glutamate receptor 2; assay type: cell membranes
[3] = Effect of compound on GluR mediated phosphoinositol metabolisim at conc of 10 uM of mGluR5a; assay type: functional
[4] = biological target: Metabotropic glutamate receptor 3 (Rattus norvegicus, UniProt P31422); assay: Compound was evaluated for the inhibition of binding of [3H]glutamate against rat recombinant Metabotropic glutamate receptor 3 expressed in HEK293 cells; assay type: cell-based
[5] = Hill coefficient was determined
[6] = Effect of compound on GluR mediated phosphoinositol metabolisim at conc of 10 uM of GluR1b; assay type: functional
[7] = Effect of compound on GluR mediated phosphoinositol metabolisim at conc of 50 uM of GluR1b; assay type: functional

Metabotropic glutamate receptor 2, sequence (Q14416 whole entry): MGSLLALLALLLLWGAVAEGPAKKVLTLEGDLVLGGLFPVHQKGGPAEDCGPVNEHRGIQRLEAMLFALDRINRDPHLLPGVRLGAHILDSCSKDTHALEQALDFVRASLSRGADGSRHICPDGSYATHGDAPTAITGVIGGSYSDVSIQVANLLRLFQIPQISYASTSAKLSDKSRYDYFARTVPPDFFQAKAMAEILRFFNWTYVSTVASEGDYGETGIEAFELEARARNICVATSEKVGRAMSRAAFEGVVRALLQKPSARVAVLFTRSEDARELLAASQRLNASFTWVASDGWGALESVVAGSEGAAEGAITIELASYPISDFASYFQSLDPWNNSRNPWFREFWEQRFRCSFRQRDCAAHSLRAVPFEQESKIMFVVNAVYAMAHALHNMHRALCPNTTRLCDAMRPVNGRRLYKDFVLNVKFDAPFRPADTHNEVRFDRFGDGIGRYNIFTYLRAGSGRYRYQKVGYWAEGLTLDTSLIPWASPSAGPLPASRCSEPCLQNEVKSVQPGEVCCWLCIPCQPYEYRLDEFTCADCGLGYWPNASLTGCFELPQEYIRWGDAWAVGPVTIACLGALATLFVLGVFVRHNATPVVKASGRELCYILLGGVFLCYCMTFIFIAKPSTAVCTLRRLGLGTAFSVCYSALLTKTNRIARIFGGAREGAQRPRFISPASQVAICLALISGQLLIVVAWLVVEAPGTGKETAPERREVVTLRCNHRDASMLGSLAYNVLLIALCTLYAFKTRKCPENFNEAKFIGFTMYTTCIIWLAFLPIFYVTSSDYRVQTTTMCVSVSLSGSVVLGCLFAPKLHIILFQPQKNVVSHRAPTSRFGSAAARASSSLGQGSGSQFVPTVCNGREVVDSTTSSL
Metabotropic glutamate receptor 3, sequence (P31422 whole entry): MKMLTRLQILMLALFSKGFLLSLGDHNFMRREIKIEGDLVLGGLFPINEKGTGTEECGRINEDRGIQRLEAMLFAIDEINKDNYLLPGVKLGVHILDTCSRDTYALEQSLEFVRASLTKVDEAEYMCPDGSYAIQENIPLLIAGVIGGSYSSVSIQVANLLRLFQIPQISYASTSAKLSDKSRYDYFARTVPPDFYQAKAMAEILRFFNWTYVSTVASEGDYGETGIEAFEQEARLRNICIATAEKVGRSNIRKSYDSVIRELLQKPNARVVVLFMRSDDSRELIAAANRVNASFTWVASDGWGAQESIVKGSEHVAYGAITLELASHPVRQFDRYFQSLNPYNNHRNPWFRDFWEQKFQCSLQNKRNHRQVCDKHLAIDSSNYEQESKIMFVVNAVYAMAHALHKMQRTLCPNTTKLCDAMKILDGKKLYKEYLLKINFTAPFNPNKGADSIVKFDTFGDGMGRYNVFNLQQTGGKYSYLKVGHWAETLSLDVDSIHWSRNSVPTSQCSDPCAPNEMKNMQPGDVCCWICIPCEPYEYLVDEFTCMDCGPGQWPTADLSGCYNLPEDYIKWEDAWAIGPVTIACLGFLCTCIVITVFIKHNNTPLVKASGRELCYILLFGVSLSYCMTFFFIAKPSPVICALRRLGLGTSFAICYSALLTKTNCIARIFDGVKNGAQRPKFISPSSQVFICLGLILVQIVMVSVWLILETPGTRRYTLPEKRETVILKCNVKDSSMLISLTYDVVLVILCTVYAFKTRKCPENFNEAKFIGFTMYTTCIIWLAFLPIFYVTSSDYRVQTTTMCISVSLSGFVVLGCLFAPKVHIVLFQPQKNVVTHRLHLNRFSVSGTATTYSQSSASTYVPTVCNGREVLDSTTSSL

SMILES	Activity [1]	Ki [2]	Activity [3]	IC50 [4]	Hill coefficient [5]	Activity [6]	Activity [7]	IC50 [2]
NC(C(=O)O)[C@H]1[C@@H](CC2c3ccccc3Oc3ccccc32)[C@@H]1C(=O)O (stereo not given in full)	94%	2700 nM	101%	1300 nM	0.93 and 0.78	131%	95%	–
NC(C(=O)O)[C@H]1[C@@H](CCC2c3ccccc3Oc3ccccc32)[C@@H]1C(=O)O (stereo not given in full)	91%	85 nM	103%	75 nM	0.92 and 1.09	110%	111%	200 nM
